From PMC6199744, “Development of Chemical Proteomics for the Folateome and Analysis of the Kinetoplastid Folateome” (ACS Infectious Diseases, 2018)
Like-named read-outs stand apart in the source and are kept apart here.

Tested on: T. brucei lysate proteins
Type: binding, Trypanosoma brucei

CCCCCCOc1cccc(Cc2cnc(N)nc2N)c1 [compound 2]
fold change (relative to vehicle control = 1, protein TB09.160.3270 ATP-DEPENDENT DEAD BOX HELICASE, PUTATIVE): 1 | fold change (relative to vehicle control = 1, protein TB09.160.4250 TR[…]): 0.99 | fold change (relative to vehicle control = 1, protein TB09.211.3540 GLYCEROL KINASE, GLYCOSOMAL): 0.98 | fold change (relative to vehicle control = 1, protein TB11.01.1290 14-3-3-I PROTEIN): 0.88 | fold change (relative to vehicle control = 1, protein TB11.02.0730 METACASPASE): 1.1 | fold change (relative to vehicle control = 1, protein TB11.02.4700 14-3-3 PROTEIN): 1 | fold change (relative to vehicle control = 1, protein TB11.03.0815 DYNEIN LIGHT CHAIN): 0.94 | fold change (relative to vehicle control = 1, protein TB11.50.0007 DYNEIN LIGHT CHAIN LC8, PUTATIVE): 0.99 | fold change (relative to vehicle control = 1, protein TB427TMP.01.1830 HY[…], CONSERVED): 1 | fold change (relative to vehicle control = 1, protein TB427TMP.01.6880 CYTOSOLIC COAT PROTEIN, PUTATIVE): 1 | fold change (relative to vehicle control = 1, protein TB427TMP.01.7490 HY[…], CONSERVED): 0.96 | fold change (relative to vehicle control = 1, protein TB427TMP.01.7530 HY[…], CONSERVED): 0.98 | fold change (relative to vehicle control = 1, protein TB427TMP.02.1460 HY[…], CONSERVED): 0.95 | fold change (relative to vehicle control = 1, protein TB427TMP.02.2120 NUCLEOPORIN 48): 0.94 | fold change (relative to vehicle control = 1, protein TB427TMP.02.2970 KINESIN, PUTATIVE): 0.89 | fold change (relative to vehicle control = 1, protein TB427TMP.02.3120 MALIC ENZYME, PUTATIVE): 0.98 | fold change (relative to vehicle control = 1, protein TB427TMP.02.4550 HY[…], CONSERVED): 0.99 | fold change (relative to vehicle control = 1, protein TB427TMP.02.5450 GLUCOSE-REGULATED PROTEIN 78, PUTATIVE): 0.98 | fold change (relative to vehicle control = 1, protein TB427TMP.02.5660 HY[…], CONSERVED): 0.85 | fold change (relative to vehicle control = 1, protein TB427TMP.03.0090 RIBOKINASE, PUTATIVE): 0.93 | fold change (relative to vehicle control = 1, protein TB427TMP.03.0460 HY[…], CONSERVED): 0.99 | fold change (relative to vehicle control = 1, protein TB427TMP.160.4770 PROTEIN KINASE, PUTATIVE): 1 | fold change (relative to vehicle control = 1, protein TB427TMP.160.4910 FLAVOPROTEIN MONOOXYGENASE, PUTATIVE): 0.93 | fold change (relative to vehicle control = 1, protein TB427TMP.18.0005 HY[…], CONSERVED): 0.95 | fold change (relative to vehicle control = 1, protein TB427TMP.39.0006 T[…] EIF2B DELTA SUBUNIT, PUTATIVE): 0.96 | fold change (relative to vehicle control = 1, protein TB427.01.4050 PROTEIN P[…] EF-HAND DOMAINS (PPEF)): 0.95 | fold change (relative to vehicle control = 1, protein TB427.03.3160 POLY(A) POLYMERASE): 0.78 | fold change (relative to vehicle control = 1, protein TB427.03.3560 HY[…], CONSERVED): 0.98 | fold change (relative to vehicle control = 1, protein TB427.03.5420 PROTEIN TRANSPORT PROTEIN SEC24): 0.94 | fold change (relative to vehicle control = 1, protein TB427.04.1510 PHOSPHOLIPID-TRA[…], PUTATIVE): 0.93 | fold change (relative to vehicle control = 1, protein TB427.05.1320 HY[…], CONSERVED): 0.93 | fold change (relative to vehicle control = 1, protein TB427.05.2320 HY[…], CONSERVED): 0.8 | fold change (relative to vehicle control = 1, protein TB427.05.300 THYMINE-7-HYDROXYLASE, PUTATIVE): 0.92 | fold change (relative to vehicle control = 1, protein TB427.05.3800 GLUTAMINE HYDROLYSING (NOT AMMONIA-DEPENDENT) […] PHOSPHATE SYNTHASE, PUTATIVE): 0.85 | fold change (relative to vehicle control = 1, protein TB427.06.2550 RNA-BINDING PROTEIN, PUTATIVE): 0.84 | fold change (relative to vehicle control = 1, protein TB427.06.3650 ADP-RI[…], PUTATIVE): 0.97 | fold change (relative to vehicle control = 1, protein TB427.06.3860 HY[…], CONSERVED): 0.94 | fold change (relative to vehicle control = 1, protein TB427.07.2570 MRNA […], PUTATIVE): 0.89 | fold change (relative to vehicle control = 1, protein TB427.08.3150 T-COMPLEX PROTEIN 1, GAMMA SUBUNIT, PUTATIVE): 0.92 | fold change (relative to vehicle control = 1, protein TB427.08.3490 HY[…], CONSERVED): 1.2 | fold change (relative to vehicle control = 1, protein TB427.08.5460 FLAGELLAR CALCIUM-BINDING PROTEIN): 0.93 | fold change (relative to vehicle control = 1, protein TB427.08.5760 HY[…], CONSERVED): 0.96 | fold change (relative to vehicle control = 1, protein TB427.08.6110 HY[…], CONSERVED): 0.87 | fold change (relative to vehicle control = 1, protein TB427.10.11930 NAD OR NADP DEPENDENT OXIDOREDUCTASE, PUTATIVE): 0.92 | fold change (relative to vehicle control = 1, protein TB427.10.13880 HY[…], CONSERVED): 0.96 | fold change (relative to vehicle control = 1, protein TB427.10.14140 PYRUVATE KINASE 1): 1.1 | fold change (relative to vehicle control = 1, protein TB427.10.14910 SA[…] GLYCOPROTEIN, PUTATIVE): 0.99 | fold change (relative to vehicle control = 1, protein TB427.10.15180 […] PROTEIN, PUTATIVE): 0.88 | fold change (relative to vehicle control = 1, protein TB427.10.2350 PYRUVATE DEH[…] E3 BINDING PROTEIN, PUTATIVE): 0.77 | fold change (relative to vehicle control = 1, protein TB427.10.4940 NUCLEAR DBF2-RELATED KINASE): 1 | fold change (relative to vehicle control = 1, protein TB427.10.7630 HY[…], CONSERVED): 1 | fold change (relative to vehicle control = 1, protein TB927.10.12840 MIT[…] PROTEIN, PUTATIVE): 0.98 | fold change (relative to vehicle control = 1, protein TB927.10.14980 INTR[…] PROTEIN IFT52, PUTATIVE): 0.98 | fold change (relative to vehicle control = 1, protein TB927.1.2400 ALPHA TUBULIN): 1 | fold change (relative to vehicle control = 1, protein TB927.10.4180 TFIIF-[…] PHOSPHATASE, PUTATIVE): 0.94 | fold change (relative to vehicle control = 1, protein TB927.10.5330 40S RIBOSOMAL PROTEIN S18, PUTATIVE): 0.96 | fold change (relative to vehicle control = 1, protein TB927.10.6670 DYNEIN LIGHT CHAIN, PUTATIVE): 0.94 | fold change (relative to vehicle control = 1, protein TB927.2.2440 […]-ATPASE SUBUNIT 6): 1.1 | fold change (relative to vehicle control = 1, protein TB927.3.1120 GTP-BINDING NUCLEAR PROTEIN RTB2, PUTATIVE): 0.95 | fold change (relative to vehicle control = 1, protein TB927.3.3490 HIGH MOBILITY GROUP PROTEIN, PUTATIVE): 0.99 | fold change (relative to vehicle control = 1, protein TB927.4.4650 […] SYNTHASE, PUTATIVE): 0.56 | fold change (relative to vehicle control = 1, protein TB927.4.5310 SERINE/THREONINE-PROTEIN KINASE A, PUTATIVE): 0.97 | fold change (relative to vehicle control = 1, protein TB927.5.1930 HY[…], CONSERVED): 0.99 | fold change (relative to vehicle control = 1, protein TB927.6.2200 HY[…], CONSERVED): 0.99 | fold change (relative to vehicle control = 1, protein TB927.6.4140 PAR[…] COMPONENT, PUTATIVE): 0.94 | fold change (relative to vehicle control = 1, protein TB927.7.2700 NADH-CYTOCHROME B5 REDUCTASE, PUTATIVE): 0.78 | fold change (relative to vehicle control = 1, protein TB927.7.4480 ADENOSINE 5'-[…], PUTATIVE): 0.99 | fold change (relative to vehicle control = 1, protein TB927.8.1510 ATP-DEPENDENT DEAD/H RNA HELICASE, PUTATIVE): 0.99 | fold change (vs vehicle control, protein ADENOSINE TRANSPORTER 1 (CZT00028614.1)): 1.29 | fold change (vs vehicle control, protein TB11.01.4370 HY[…], CONSERVED): 0.99 | fold change (vs vehicle control, protein TB11.02.1220 […] SUBUNIT 2): 0.97 | fold change (vs vehicle control, protein TB427TMP.01.1540 HY[…], CONSERVED): 1.1 | fold change (vs vehicle control, protein TB427TMP.01.5690 DRBD4): 0.99 | fold change (vs vehicle control, protein TB427TMP.01.8510 T-COMPLEX PROTEIN 1, ALPHA SUBUNIT, PUTATIVE): 0.81 | fold change (vs vehicle control, protein TB427TMP.02.5620 Tb427tmp.02.5620): 0.97 | fold change (vs vehicle control, protein TB427TMP.160.4240 […] PROTEIN-LIKE PROTEIN): 0.98 | fold change (vs vehicle control, protein TB427TMP.211.2730 GIM5A PROTEIN): 1.45 | fold change (vs vehicle control, protein TB427.03.4910 SIGNAL PEPTIDE PEPTIDASE, PUTATIVE): 1 | fold change (vs vehicle control, protein TB427.05.2890 HY[…], CONSERVED): 0.9 | fold change (vs vehicle control, protein TB427.05.3170 RIBOSE-PHOSPHATE PYROPHOSPHOKINASE, PUTATIVE): 1.2 | fold change (vs vehicle control, protein TB427.06.3630 SPHINGOSINE 1-PHOSPHATE LYASE, PUTATIVE): 0.97 | fold change (vs vehicle control, protein TB427.06.4770 HY[…], CONSERVED): 1 | fold change (vs vehicle control, protein TB427.08.550 PEPTIDE […] REDUCTASE, PUTATIVE): 0.93 | fold change (vs vehicle control, protein TB427.10.1170 INTR[…] PROTEIN IFT172, PUTATIVE): 0.83 | fold change (vs vehicle control, protein TB427.10.13660 HY[…], CONSERVED): 0.93 | fold change (vs vehicle control, protein TB427.10.14550 ATP-DEPENDENT DEAD/H RNA HELICASE, PUTATIVE): 1.1 | fold change (vs vehicle control, protein TB427.10.1510 NOT1): 0.9 | fold change (vs vehicle control, protein TB427.10.2290 CHAPERONE PROTEIN DNAJ, PUTATIVE): 0.96 | fold change (vs vehicle control, protein TB427.10.8190 T-COMPLEX PROTEIN 1, THETA SUBUNIT, PUTATIVE): 0.91 | fold change (vs vehicle control, protein TB927.10.2100 […] 1-ALPHA): 0.99 | fold change (vs vehicle control, protein TB927.10.540 ATP-DEPENDENT DEAD/H RNA HELICASE, PUTATIVE): 0.95 | fold change (vs vehicle control, protein TB927.2.4930 ESTERASE, PUTATIVE): 0.94 | fold change (vs vehicle control, protein TB927.5.1630 HY[…], CONSERVED): 0.99 | fold change (vs vehicle control, protein TB927.7.2750 PROTEIN KINASE, PUTATIVE): 0.79 | fold change (vs vehicle control, protein TB927.8.4330 SMALL GTP-BINDING PROTEIN RAB11): 1
